Assay results: patent US20260250273A1, “CRYSTAL FORM OF COMPOUND, AND PHARMACEUTICAL COMPOSITION AND USE THEREOF” (SHENZHEN KEYE LIFE TECHNOLOGIES CO., LTD, priority 2023, published 2026)

Key:
[1] = Crystal form conversion of wet samples on air-drying at room temperature (XRPD); format: physicochemical; conditions: for Crystal form after air-drying: air-dried at room temperature for 1 d; for Stability of the crystal form: crystalline wet solid
[2] = Suspension competition experiment between anhydrous crystal form A and anhydrous crystal form C (XRPD); format: physicochemical; conditions: for Relative stability of crystal forms concluded from suspension competition: room temperature to 50 °C
[3] = Heating experiment and variable temperature XRPD (VT-XRPD); format: physicochemical; conditions: heated to 120 °C
[4] = Hygroscopicity evaluation (DVS test, XRPD after DVS); format: physicochemical; conditions: for Sample weight change at 80% RH (%): DVS, 25 °C; for Whether crystal form changes before and after test: XRPD before and after DVS test; for Hygroscopicity: weight gain when humidity rises to 80% RH at 25 °C, Chinese Pharmacopoeia (2020 Edition)
[5] = Solid-form stability under long-term and accelerated conditions (HPLC purity, XRPD); format: physicochemical; conditions: 10 d; for Physical and chemical stability: 25 °C/60% RH and 40 °C/75% RH; for Purity (Area %): HPLC, initial purity 99.55 (form A), 99.84 (form C)
[6] = High-temperature stability (HPLC purity, XRPD); format: physicochemical; conditions: 60 °C, 10 d; for Purity (Area %): HPLC, initial purity 99.55 (form A), 99.84 (form C)
[7] = target: T1, DHX33 (Homo sapiens, UniProt Q9H6R0); conditions: background statement, no data; cited from earlier work
T1 sequence (Q9H6R0 1-707): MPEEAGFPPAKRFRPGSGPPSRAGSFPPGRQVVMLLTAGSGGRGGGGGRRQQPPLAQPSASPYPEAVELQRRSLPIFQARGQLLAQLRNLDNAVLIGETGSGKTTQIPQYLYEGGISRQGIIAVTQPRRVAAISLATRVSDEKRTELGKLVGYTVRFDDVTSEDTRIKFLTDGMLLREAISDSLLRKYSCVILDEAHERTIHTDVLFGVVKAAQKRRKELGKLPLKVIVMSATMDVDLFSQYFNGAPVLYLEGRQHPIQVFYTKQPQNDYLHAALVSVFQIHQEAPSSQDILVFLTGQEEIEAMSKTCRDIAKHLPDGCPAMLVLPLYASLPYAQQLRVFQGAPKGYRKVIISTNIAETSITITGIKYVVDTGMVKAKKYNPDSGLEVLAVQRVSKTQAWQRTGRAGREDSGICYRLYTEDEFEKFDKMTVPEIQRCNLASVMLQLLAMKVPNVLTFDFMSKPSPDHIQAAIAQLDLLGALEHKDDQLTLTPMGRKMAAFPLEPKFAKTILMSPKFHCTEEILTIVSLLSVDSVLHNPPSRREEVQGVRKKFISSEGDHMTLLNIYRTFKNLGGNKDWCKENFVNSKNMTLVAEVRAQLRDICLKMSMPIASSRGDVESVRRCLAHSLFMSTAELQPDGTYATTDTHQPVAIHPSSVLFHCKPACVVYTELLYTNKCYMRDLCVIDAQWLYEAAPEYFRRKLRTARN

[8] = listed as anhydrous crystal form A
[9] = listed as anhydrous crystal form C

COc1ccc2nc(NC(=O)c3cc(C)n(-c4sc(C)cc4C#N)c3C)[nH]c2c1 [crystal form D, 1-(3-cyano-5-methylthiophen-2-yl)-N-(6-methoxy-1H-benzo[d]imidazol-2-yl)-2,5-dimethyl-1H-pyrrole-3-carboxamide]
Crystal form after air-drying [1]: converted into the anhydrous crystal form C
Stability of the crystal form [1]: metastable form

COc1ccc2nc(NC(=O)c3cc(C)n(-c4sc(C)cc4C#N)c3C)[nH]c2c1
Competition for 1 d (XPRD) ([2]; EtOH, 50 °C, saturated solution of Compound (1), resulting crystal form): crystal form B
Competition for 2 d (XPRD) ([2]; IPAc, RT, saturated solution of Compound (1), resulting crystal form): crystal form B

COc1ccc2nc(NC(=O)c3cc(C)n(-c4sc(C)cc4C#N)c3C)[nH]c2c1 [crystal form B, 1-(3-cyano-5-methylthiophen-2-yl)-N-(6-methoxy-1H-benzo[d]imidazol-2-yl)-2,5-dimethyl-1H-pyrrole-3-carboxamide]
Relative stability of crystal forms concluded from suspension competition [2]: relatively more stable in the case of the wet sample
Crystal form after air-drying [1]: converted into the anhydrous crystal form A
Stability of the crystal form [1]: metastable form

COc1ccc2nc(NC(=O)c3cc(C)n(-c4sc(C)cc4C#N)c3C)[nH]c2c1 (single isomer, unassigned) [Anhydrous crystal form A, 1-(3-cyano-5-methylthiophen-2-yl)-N-(6-methoxy-1H-benzo[d]imidazol-2-yl)-2,5-dimethyl-1H-pyrrole-3-carboxamide]
Crystal form in VT-XRPD analysis ([3]; XRPD in situ, then cooled to room temperature): crystal form remained unchanged
Crystal form in heating experiment ([3]; maintained for 5 min, cooled to room temperature): crystal form remained unchanged
Relative stability of crystal forms concluded from suspension competition [2]: more thermodynamically stable anhydrous form
Sample weight change at 80% RH (%) [4]: 3.24%
Sample weight change at 80% RH (%) [4, 8]: 3.24%
Whether crystal form changes before and after test [4]: No
Whether crystal form changes before and after test [4, 8]: no changes in crystal form
Hygroscopicity [4]: slight hygroscopicity
Physical and chemical stability [5]: good physical and chemical stability
Crystal form Change ([5]; 25 °C/60% RH): No
Purity (Area %) ([5]; 25 °C/60% RH): 99.67 Area %
Crystal form Change ([5]; 40 °C/75% RH): No
Purity (Area %) ([5]; 40 °C/75% RH): 99.60 Area %
Crystal form Change [6]: No
Physical and chemical stability [6]: good physical and chemical stability
Purity (Area %) [6]: 99.63 Area %

COc1ccc2nc(NC(=O)c3cc(C)n(-c4sc(C)cc4C#N)c3C)[nH]c2c1 [compound of Formula (1), 1-(3-cyano-5-methylthiophen-2-yl)-N-(6-methoxy-1H-benzo[d]imidazol-2-yl)-2,5-dimethyl-1H-pyrrole-3-carboxamide]
Inhibiting the RNA helicase activity of DHX33 [7]: capable of inhibiting the RNA helicase activity of DHX33

COc1ccc2nc(NC(=O)c3cc(C)n(-c4sc(C)cc4C#N)c3C)[nH]c2c1 (single isomer, unassigned) [Anhydrous crystal form C, 1-(3-cyano-5-methylthiophen-2-yl)-N-(6-methoxy-1H-benzo[d]imidazol-2-yl)-2,5-dimethyl-1H-pyrrole-3-carboxamide]
Crystal form after air-drying [1]: converted into the anhydrous crystal form A
Sample weight change at 80% RH (%) [4]: 3.71%
Sample weight change at 80% RH (%) [4, 9]: 3.71%
Whether crystal form changes before and after test [4]: No
Whether crystal form changes before and after test [4, 9]: no changes in crystal form
Hygroscopicity [4]: slight hygroscopicity
Physical and chemical stability [5]: good physical and chemical stability
Crystal form Change ([5]; 25 °C/60% RH): No
Purity (Area %) ([5]; 25 °C/60% RH): 99.87 Area %
Crystal form Change ([5]; 40 °C/75% RH): No
Purity (Area %) ([5]; 40 °C/75% RH): 99.90 Area %
Crystal form Change [6]: No
Physical and chemical stability [6]: good physical and chemical stability
Purity (Area %) [6]: 99.86 Area %
